This experiment deals with human NaV 1.8 (Homo sapiens, UniProt Q9Y5Y9). In words: E-VIPR Assay Detecting and Measuring NaV Inhibition Properties. Type of experiment: cell-based. To be noted: HEK cells expressing a truncated form of human NaV 1.8 with full channel activity; electrical stimulation, membrane potential FRET dyes; read-out: measured IC50 value in the E-VIPR Assay. From the text: E-VIPR Assay Detecting and Measuring NaV Inhibition Properties
Chain of human NaV 1.8 (Q9Y5Y9 126-1722 limits assumed): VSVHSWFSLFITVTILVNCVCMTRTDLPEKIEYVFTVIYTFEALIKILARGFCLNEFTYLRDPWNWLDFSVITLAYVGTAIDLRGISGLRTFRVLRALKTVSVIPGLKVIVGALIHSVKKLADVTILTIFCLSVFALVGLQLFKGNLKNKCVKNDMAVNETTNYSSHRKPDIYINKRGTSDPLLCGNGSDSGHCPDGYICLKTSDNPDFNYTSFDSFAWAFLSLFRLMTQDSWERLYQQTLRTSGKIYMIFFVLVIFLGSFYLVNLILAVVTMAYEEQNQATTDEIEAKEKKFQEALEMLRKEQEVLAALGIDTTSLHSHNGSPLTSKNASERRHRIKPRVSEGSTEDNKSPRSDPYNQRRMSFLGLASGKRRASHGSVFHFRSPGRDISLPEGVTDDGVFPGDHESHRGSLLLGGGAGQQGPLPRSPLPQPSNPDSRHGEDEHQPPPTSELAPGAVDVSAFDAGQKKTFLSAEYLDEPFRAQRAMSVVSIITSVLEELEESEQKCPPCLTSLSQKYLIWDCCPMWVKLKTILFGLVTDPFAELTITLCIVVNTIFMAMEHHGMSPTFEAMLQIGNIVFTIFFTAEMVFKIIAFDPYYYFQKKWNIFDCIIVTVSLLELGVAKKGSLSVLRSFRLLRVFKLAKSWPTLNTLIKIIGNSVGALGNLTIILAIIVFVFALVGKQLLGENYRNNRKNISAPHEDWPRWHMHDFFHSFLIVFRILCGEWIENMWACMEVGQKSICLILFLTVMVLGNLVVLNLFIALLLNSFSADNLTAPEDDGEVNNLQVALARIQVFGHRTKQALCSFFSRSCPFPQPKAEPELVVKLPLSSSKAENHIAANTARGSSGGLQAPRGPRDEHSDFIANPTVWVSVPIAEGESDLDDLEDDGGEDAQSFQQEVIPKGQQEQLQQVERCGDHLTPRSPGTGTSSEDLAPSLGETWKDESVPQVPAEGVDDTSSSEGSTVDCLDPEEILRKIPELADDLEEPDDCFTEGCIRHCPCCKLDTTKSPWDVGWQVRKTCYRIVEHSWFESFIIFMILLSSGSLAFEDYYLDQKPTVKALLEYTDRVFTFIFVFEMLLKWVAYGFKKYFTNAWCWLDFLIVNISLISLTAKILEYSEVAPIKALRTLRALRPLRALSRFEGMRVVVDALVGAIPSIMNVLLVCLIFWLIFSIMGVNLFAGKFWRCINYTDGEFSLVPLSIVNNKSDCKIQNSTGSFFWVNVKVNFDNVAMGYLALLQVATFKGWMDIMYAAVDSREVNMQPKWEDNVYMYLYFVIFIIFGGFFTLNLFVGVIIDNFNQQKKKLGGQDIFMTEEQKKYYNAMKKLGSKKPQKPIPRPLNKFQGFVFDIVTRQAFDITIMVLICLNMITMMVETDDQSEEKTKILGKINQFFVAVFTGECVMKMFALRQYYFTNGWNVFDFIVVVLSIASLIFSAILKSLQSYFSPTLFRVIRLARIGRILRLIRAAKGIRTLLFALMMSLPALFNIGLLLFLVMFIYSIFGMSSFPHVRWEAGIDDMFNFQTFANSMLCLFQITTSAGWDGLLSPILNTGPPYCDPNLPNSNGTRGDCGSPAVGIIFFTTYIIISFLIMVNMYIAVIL
Sodium ion channels are voltage-dependent proteins that can be activated by inducing membrane voltage changes by applying electric fields. The electrical stimulation instrument and methods of use, referred to as E-VIPR, are described in International Publication No. WO 2002/008748 A3 and C.-J. Huang et al. Characterization of voltage-gated sodium channel blockers by electrical stimulation and fluorescence detection of membrane potential, 24 Nature Biotech. 439-46 (2006), both of which are incorporated by reference in their entirety. The instrument comprises a microtiter plate handler, an optical system for exciting the coumarin dye while simultaneously recording the coumarin and oxonol emissions, a waveform generator, a current- or voltage-controlled amplifier, and parallel electrode pairs that are inserted into assay plate wells. Under integrated computer control, this instrument passes user-programmed electrical stimulus protocols to cells within the wells of the microtiter plate.
16-20 hours prior to running the assay on E-VIPR, HEK cells expressing a truncated form of human NaV 1.8 with full channel activity were seeded into microtiter 384-well plates, pre-coated with matrigel, at a density of 25,000 cells per well. 2.5-5% KIR2.1 Bacmam virus was added to the final cell suspension before seeding into cell plates. HEK cells were grown in Dulbecco's Modified Eagle's Medium (DMEM) supplemented with 10% FBS (Fetal Bovine Serum, qualified; Sigma #F4135), 1% NEAA (Non-Essential Amino Acids, Gibco #11140), 1% HEPES (Gibco #15630), 1% Pen-Strep (Penicillin-Streptomycin; Gibco #15140) and 5 μg/ml Blasticidin (Gibco #R210-01). Cells were expanded in vented cap cell culture flasks, with 90-95% humidity and 5% CO2.
2.5-5% KIR 2.1 Bacmam virus (produced in-house), prepared as described in Section 3.3 of J. A. Fornwald et al., Gene Expression in Mammalian Cells Using BacMam, a Modified Baculovirus System, 1350 Methods in Molecular Biology 95-116 (2016), the entire contents of which are incorporated by reference. The concentration used can be dependent on viral titer of each batch.
5 mM DiSBAC6(3), a voltage sensitive oxonol acceptor (CAS number 169211-44-3; 5-[3-(1,3-dihexylhexahydro-4,6-dioxo-2-thioxo-5-pyrimidinyl)-2-propen-1-ylidene]-1,3-dihexyldihydro-2-thioxo-4,6(1H,5H)-pyrimidinedione), in dry DMSO. The preparation of DiSBAC6(3) is analogous to that of DiSBAC4(3) as described in Voltage Sensing by Fluorescence Resonance Energy Transfer in Single Cells, Gonzalez, J. E. and Tsien, R. Y. (1995) Biophys. J. 69, 1272-1280.
5 mM CC2-DMPE, a commercially available membrane-bound coumarin phospholipid FRET donor (ThermoFisher Scientific catalog number K1017, CAS number 393782-57-5; tetradecanoic acid, 1,1′-[(1R)-1-[8-(6-chloro-7-hydroxy-2-oxo-2H-1-benzopyran-3-yl)-3-hydroxy-3-oxido-8-oxo-2,4-dioxa-7-aza-3-phosphaoct-1-yl]-1,2-ethanediyl] ester) was prepared in dry DMSO. See also, Improved indicators of cell membrane potential that use fluorescence resonance energy transfer, Gonzalez, J. E. and Tsien, R. Y. (1997) Chem. Biol. 4, 269-277.
Voltage Assay Background Suppression Compound (VABSC-1) is prepared in H2O (89-363 mM, range used to maintain solubility)
Human Serum (HS, Millipore #S1P1-01KL, or Sigma SLBR5469V and SLBR5470V as a 50%/50% mixture, for 25% assay final concentration)
• Sodium Chloride 160 mM (9.35 g/L), Potassium Chloride, 4.5 mM (0.335 g/L), Glucose • 10 mM (1.8 g/L), Magnesium Chloride (Anhydrous) 1 mM (0.095 g/L), Calcium • Chloride 2 mM (0.222 g/L), HEPES 10 mM (2.38 g/L) in water.
• Sodium Chloride 96 mM (5.61 g/L), Potassium Chloride 4.5 mM (0.335 g/L), • Tetramethylammonium (TMA)-Cl 64 mM (7.01 g/L), Glucose 10 mM (1.8 g/L), • Magnesium Chloride (Anhydrous) 1 mM (0.095 g/L), Calcium Chloride 2 mM (0.222 • g/L) HEPES 10 mM (2.38 g/L) in water. […]
Turning to `COCCOc1c([C@H]2[C@@H](C(=O)Nc3cnc(C(O)CO)nc3)O[C@@](C)(C(F)(F)F)[C@H]2C)ccc(F)c1C` (single isomer, unassigned) [Compound 16], the concentration for half-maximal inhibition (IC50) is no less than 1000 nM.

In the case of `C[C@H]1[C@@H](c2ccc(F)c(F)c2OCC2COC2)[C@H](C(=O)Nc2ccc(CO)nc2)O[C@@]1(C)C(F)(F)F` [Compound 24, (2R,3S,4S,5R)-3-(3,4-difluoro-2-(oxetan-3-ylmethoxy)phenyl)-N-(6-(hydroxymethyl)pyridin-3-yl)-4,5-dimethyl-5-(trifluoromethyl)tetrahydrofuran-2-carboxamide], the half-inhibitory concentration (IC50) was in the range of 10 to 100 nM. As for `C[C@H]1[C@@H](c2ccc(F)c(F)c2OCCN2C[C@H]3COC[C@H]3C2)[C@H](C(=O)Nc2cnc(CO)nc2)O[C@@]1(C)C(F)(F)F` [Compound 26, (2R,3S,4S,5R)-3-(3,4-difluoro-2-(2-((3aR,6aS)-tetrahydro-1H-furo[3,4-c]pyrrol-5(3H)-yl)ethoxy)phenyl)-N-(2-(hydroxymethyl)pyrimidin-5-yl)-4,5-dimethyl-5-(trifluoromethyl)tetrahydrofuran-2-carboxamide], the figure is 100 to 1000 nM.

In the case of `C[C@H]1[C@@H](c2ccc(F)c(F)c2OCC2CCOC2)[C@H](C(=O)Nc2ccc(CO)nc2)O[C@@]1(C)C(F)(F)F` (stereo partly drawn) [Compound 9, (2R,3S,4S,5R)-3-(3,4-difluoro-2-((tetrahydrofuran-3-yl)methoxy)phenyl)-N-(6-(hydroxymethyl)pyridin-3-yl)-4,5-dimethyl-5-(trifluoromethyl)tetrahydrofuran-2-carboxamide], the IC50 lay in the range of 10 to 100 nM. The figure for `COCCOc1c([C@H]2[C@H](C(=O)Nc3ccc(C(O)COC)nc3)O[C@@](C)(C(F)(F)F)[C@H]2C)ccc(F)c1F` (single isomer, unassigned) [Compound 21, rel-(2R*,3S*,4S*,5R*)-3-(3,4-difluoro-2-(2-methoxyethoxy)phenyl)-N-(6-(1-hydroxy-2-methoxyethyl)pyridin-3-yl)-4,5-dimethyl-5-(trifluoromethyl)tetrahydrofuran-2-carboxamide] is 10 to 100 nM; for `C[C@H]1[C@@H](c2ccc(F)c(F)c2OCCOC(F)F)[C@H](C(=O)Nc2ccc([C@@H](O)CO)nc2)O[C@@]1(C)C(F)(F)F` [Compound 12, (2R,3S,4S,5R)-3-(2-(2-(difluoromethoxy)ethoxy)-3,4-difluorophenyl)-N-(6-((R)-1,2-dihydroxyethyl)pyridin-3-yl)-4,5-dimethy1-5-(trifluoromethyl)tetrahydrofuran-2-carboxamide] it is 10 to 100 nM; for `COCCOc1c([C@H]2[C@H](C(=O)Nc3ccc([C@@H](O)CO)nc3)O[C@@](C)(C(F)(F)F)[C@H]2C)ccc(F)c1F` [Compound 10, (2R,3S,4S,5R)-3-(3,4-difluoro-2-(2-methoxyethoxy)phenyl)-N-(6-((R)-1,2-dihydroxyethyl)pyridin-3-yl)-4,5-dimethyl-5-(trifluoromethyl)tetrahydrofuran-2-carboxamide] it is less than 10 nM. Regarding `C[C@H]1[C@@H](c2ccc(F)c(F)c2OCCN2CCOCC2)[C@H](C(=O)Nc2ccc(CO)nc2)O[C@@]1(C)C(F)(F)F` [Compound 25, (2R,3S,4S,5R)-3-(3,4-difluoro-2-(2-morpholinoethoxy)phenyl)-N-(6-(hydroxymethyl)pyridin-3-yl)-4,5-dimethyl-5-(trifluoromethyl)tetrahydrofuran-2-carboxamide], the half-inhibitory concentration (IC50) lay in the range of 10 to 100 nM. As for `C[C@H]1[C@@H](c2ccc(F)c(F)c2OCCO)[C@H](C(=O)Nc2ccc(CO)nc2)O[C@@]1(C)C(F)(F)F` [Compound 23, (2R,3S,4S,5R)-3-(3,4-difluoro-2-(2-hydroxyethoxy)phenyl)-N-(6-(hydroxymethyl)pyridin-3-yl)-4,5-dimethyl-5-(trifluoromethyl)tetrahydrofuran-2-carboxamide], the figure is 10 to 100 nM; as for `CO[C@@H](C)COc1c([C@H]2[C@H](C(=O)Nc3ccc(CO)nc3)O[C@@](C)(C(F)(F)F)[C@H]2C)ccc(F)c1F` [Compound 5, (2R,3S,4S,5R)-3-(3,4-difluoro-2-((S)-2-methoxypropoxy)phenyl)-N-(6-(hydroxymethyl)pyridin-3-yl)-4,5-dimethyl-5-(trifluoromethyl)tetrahydrofuran-2-carboxamide], 10 to 100 nM; as for `COCCOc1c([C@@H]2[C@@H](C(=O)Nc3cnc(C(O)CO)nc3)O[C@](C)(C(F)(F)F)[C@@H]2C)ccc(F)c1C` (single isomer, unassigned) [Compound 13], no less than 1000 nM. As for `COCCOc1c([C@H]2[C@@H](C)[C@@](C)(C(F)(F)F)O[C@H]2C(=O)Nc2cnc(C(O)CO)nc2)ccc(F)c1C` (single isomer, unassigned) [Compound 15], the figure is no less than 1000 nM; as for `COc1c([C@H]2[C@H](C(=O)Nc3cnc4c(c3)OCC4O)O[C@@](C)(C(F)(F)F)[C@H]2C)ccc(F)c1F` (single isomer, unassigned) [Compound 1, rel-(2R*,3S*,4S*,5R*)-3-(3,4-difluoro-2-methoxyphenyl)-N-(3-hydroxy-2,3-dihydrofuro[3,2-b]pyridin-6-yl)-4,5-dimethyl-5-(trifluoromethyl)tetrahydrofuran-2-carboxamide], 10 to 100 nM.

Take `CO[C@H](C)COc1c([C@H]2[C@H](C(=O)Nc3ccc(CO)nc3)O[C@@](C)(C(F)(F)F)[C@H]2C)ccc(F)c1F` [Compound 6, (2R,3S,4S,5R)-3-(3,4-difluoro-2-((R)-2-methoxypropoxy)phenyl)-N-(6-(hydroxymethyl)pyridin-3-yl)-4,5-dimethyl-5-(trifluoromethyl)tetrahydrofuran-2-carboxamide]: the 50% inhibitory concentration (IC50) is 10 to 100 nM. As for `COc1c([C@H]2[C@H](C(=O)Nc3cnc4c(c3)OCC4O)O[C@@](C)(C(F)(F)F)[C@H]2C)ccc(F)c1F` (single isomer, unassigned) [Compound 2, rel-(2R*,3S*,4S*,5R*)-3-(3,4-difluoro-2-methoxyphenyl)-N-(3-hydroxy-2,3-dihydrofuro[3,2-b]pyridin-6-yl)-4,5-dimethyl-5-(trifluoromethyl)tetrahydrofuran-2-carboxamide], the figure is 100 to 1000 nM.

For the compound `C[C@H]1[C@@H](c2ccc(F)c(F)c2OCC(=O)N(C)C)[C@H](C(=O)Nc2ccc(CO)nc2)O[C@@]1(C)C(F)(F)F` [Compound 7, (2R,3S,4S,5R)-3-(2-(2-(dimethylamino)-2-oxoethoxy)-3,4-difluorophenyl)-N-(6-(hydroxymethyl)pyridin-3-yl)-4,5-dimethyl-5-(trifluoromethyl)tetrahydrofuran-2-carboxamide], the 50% inhibitory concentration (IC50) is 10 to 100 nM. As for `C[C@H]1[C@@H](c2ccc(F)c(F)c2OC2CC3(COC3)C2)[C@H](C(=O)Nc2ccc(CO)nc2)O[C@@]1(C)C(F)(F)F` [Compound 8, (2R,3S,4S,5R)-3-(2-((2-oxaspiro[3.3]heptan-6-yl)oxy)-3,4-difluorophenyl)-N-(6-(hydroxymethyl)pyridin-3-yl)-4,5-dimethyl-5-(trifluoromethyl)tetrahydrofuran-2-carboxamide], the figure is 100 to 1000 nM.

As a reminder, the IC50 is the concentration at which inhibition is half-maximal.
